Source: US9101628B2, “Methods and composition of treating a flaviviridae family viral infection” (The Board of Trustees of the Leland Stanford Junior …, priority 2007, dated 2015)
Read-outs that look alike come from different tables or passages of the source.

How the values were obtained:
hERG channel = hERG channel (Homo sapiens, UniProt Q12809)
[1] = Alamar Blue-based cell viability assay; design: species or system human; conditions: human
Method: (§1) Total volume per well is 100 μl.
(§2) (or until there is a color change).

Huh7.5 cells = experiment: Alamar Blue-based cell viability assay; design: species or system human; conditions: at antiviral concentrations, Alamar Blue, 72 hr
Method: as §1, §2

[2] = system: infectious HCV clone (J6/JFH); experiment: Real-time PCR assay of HCV replication in HCV-infected Huh7.5 cells; assay type: cell-based; conditions: real-time PCR (FIG. 8)
Method: 5×10^4 Huh7.5 ells were infected with cell culture-grown HCV titered at 1.4×10^4 TCID50/ml, as described. 2 hours after infection, cells were washed three times in culture medium. Cells were then treated daily with various concentrations of clemizole. After 72 hours, samples were subjected to the viability assay described above, following which TRIzol Reagent (Invitrogen) was added and total cell RNA was extracted in triplicates according to the manufacturer's instructions. Reverse transcription was then performed using random hexamers and Superscript II reverse transcriptase (Invitrogen, Carlsbad, Calif.). Real-time PCR was performed on the resulting cDNA to quantify the amounts of HCV and actin RNA (in separate reactions) in each sample. Standards were made using an in vitro-transcribed HCV RNA and human actin standard (Applied Biosystems, Foster City, Calif.). HCV was quantified using primers […] (SEQ ID NO 8) and […] (SEQ ID NO 9) and probe 6-carboxyfluorescein-[…]-6 (SEQ ID NO 10) carboxytetramethylrhodamine. Actin was quantified using beta-actin control reagents (Applied Biosystems) according to the manufacturer's instructions. HCV RNA level was adjusted to actin level and normalized relative to untreated samples.

W55R mutant J6/JFH RNA = experiment: Luciferase reporter-linked replication assay, W55R mutant; assay type: cell-based, HCV
Source text: Two of the clemizole-resistant NS4B mutants were characterized in detail. The first, W55R is depicted in FIG. 6a. It involves the substitution of an arginine for the tryptophan at amino acid 55 within a predicted cytoplasmically-oriented segment of NS4B. This mutation is sufficient to confer a clemizole-resistant phenotype in cells: Huh7.5 cells transfected with either whole cell RNA extracted from the W55R mutant cells (FIG. 6b) or with in vitro-transcribed J6/JFH RNA encoding this point mutation and a linked luciferase reporter gene (FIG. 6c) were unaffected by 10 μM clemizole.
The plasmid FL-J6/JFH-5′C19Rluc2AUbi that consists of the full-length HCV genome and expresses Renilla luciferase was a gift from Dr. Charles M. Rice. The W55R mutation was introduced into this plasmid by site-directed mutagenesis (using the QuikChange kit (Stratagene)).
Medium was changed daily.

R214Q NS4B mutant HCV = experiment: Luciferase reporter linked replication assay, R214Q mutant; assay type: cell-based
W55R NS4B mutant = biological target: T1, W55R NS4B mutant (Hepatitis C virus genotype 1a, UniProt P27958, A1893V/D1840G/F1898S/L1839I/R1905H/S1900A/W1766R); experiment: In vitro microfluidic RNA binding assay, W55R NS4B mutant; design: species or system HCV; conditions: 10 nM clemizole
T1 construct: made in house; host or cells: in vitro transcription/translation, inferred from the way wild-type NS4B-GFP was made; not repeated for the mutant

HuR = biological target: T2, HuR (Homo sapiens, UniProt Q15717); experiment: HuR RNA binding by microfluidics (specificity of hits); conditions: 0.1 mM
T2 construct: The open reading frames (ORF) of HuR and HuD were obtained from the ORFeome library of cDNA clones (Open biosystems); V5-his (C); made in house; host or cells: cell-free expression on the microfluidic device, from pcDNA-Dest 40 carrying the ORFeome clone (Open Biosystems)
Method: Specificity of hits identified in the small molecule screen: To determine the specificity of the hits identified in the small molecule screen, the HuR protein (one of the human RNA binding protein used to validate our RNA binding assay) was selected. […] Binding of HuR to the consensus 4A RNA sequence was tested in the presence of the inhibitory molecules shown to inhibit RNA binding by NS4B. […] Similarly, 0.1 mM of the identified compounds didn't have an inhibitory effect on binding of HuR to the 3′ terminus of the negative HCV RNA strand.

HCV (genotype 4) = experiment: Treatment of patients chronically infected with HCV; assay type: in vivo, human; conditions: clemizole 100 milligrams p.o. BID alone, 4 weeks, 3 patients
Method: After the first four weeks of clemizole monotherapy, pegylated interferon (180 micrograms Pegasus (Roche) s.q. per week) was added.

[3] = system: subgenomic Bart 79I HCV RNA replicon (genotype 1b); experiment: microbe, parasite or virus in culture; assay type: cell-based; conditions: Hepatitis C virus; genotype 1b luciferase reporter, 72 hr; read-out: EC50 HCV replication
[4] = system: genotype 1b subgenomic HCV replicon (Bart 79I); assay type: cell-based
[5] = system: replicon harboring the W55R mutation; experiment: Whole cell RNA electroporation, clemizole resistant clone; assay type: cell-based, HCV; conditions: 10 μM clemizole; 2.5 μM SCH503034
Method: Whole cell RNA was extracted from clemizole-resistant replicon clones and from untreated replicon cells using TRIzol reagent (Invitrogen). Equal amounts of whole cell RNA (50 μg) were electroporated into Huh7.5 cells as described above. Cells were grown under G418 selection in the presence or absence of clemizole for 3 weeks. The number of colonies was determined using Image J (NIH) following fixation and staining with Crystal violet.
Cells transfected with whole cell RNA extracted from wild type replicon cells were sensitive to both drugs.

[6] = system: replicon harboring the A156T mutation; experiment: Whole cell RNA electroporation, SCH503034 resistant clone; assay type: cell-based, HCV
[7] = biological target: NS4B (binding to 3′ terminus negative strand HCV RNA) (Hepatitis C virus genotype 1a, UniProt P27958); experiment: In vitro microfluidic NS4B RNA binding assay; conditions: wild type NS4B, 10 nM clemizole

## COc1ccc(Cn2cnc3c(NS(C)(=O)=O)c(C)c(C)cc32)cc1 [Compound 106]
hERG channel
  IC50: > 10 µM

## Clc1ccc(Cn2c(CN3CCCC3)nc3ccccc32)cc1 [clemizole]
[1]; genotype 1b experiments, Alamar Blue, 72 hr
  CC50 at 72 h: 40 ± 5 µM
[1]; genotype 2a experiments, Alamar Blue-based and CellTiter-Blue assay
  CC50 at 72 h: 35 ± 0.5 µM
Huh7.5 cells
  cellular toxicity: no measurable toxicity
[2]
  HCV replication levels: inhibits HCV replication
W55R mutant J6/JFH RNA; 10 μM clemizole
  effect on replication of W55R mutant: unaffected
W55R mutant J6/JFH RNA; W55R mutant
  EC50 relative to the EC50 on the wild type RNA: 2.25 times
R214Q NS4B mutant HCV
  EC50 relative to the EC50 on the wild type RNA: ~5 times
W55R NS4B mutant
  reduction of RNA binding: ~2 fold
HuR
  effect on binding of HuR to 4A RNA sequence: No inhibitory effect
HCV (genotype 4)
  HCV viral loads in serum: decreased significantly
[3]
  EC50: 23 ± 7 µM
[4]; 4 μM clemizole added
  decrease of the frequency of resistant colonies selected with 1 μM of SCH503034: 6 folds
[4]; 8 μM clemizole added
  decrease of the frequency of resistant colonies selected with 1 μM of SCH503034: 18 folds
[5]
  sensitivity of Huh7.5 cells transfected with whole cell RNA from W55R clone: unaffected
[6]
  sensitivity of Huh7.5 cells transfected with whole cell RNA from A156T clone: but not to clemizole
[7]
  reduction of RNA binding: ~2 fold
